What was measured:
[1] = tested on: carrageenin oedema in the rat paw; assay: Carrageenin oedema test in rats; assay type: in vivo, male rat; settings: topical, both formulations
Experimental: To male rats weighing 220 g, fasted for 24 hours, 0.1 ml of 1% carrageenin suspension was injected into the plantar surface of a hind paw.
The control group, consisting of 25 animals, was administered with the only carrageenin, two other groups, consisting each of 25 animals, were topically administered with Coenzyme Q10 in form of two different formulations, in peanut oil and olive oil respectively, before the carrageenin injection. The results were expressed by means of a plethysmograph, which measured the size of the oedema 4 hours after the carrageenin injection.

holes in rabbits' ears = assay: Tissular regeneration and healing of holes in rabbits' ears; assay type: in vivo, New Zealand rabbit; settings: topical composition, 5 mg/cc, versus not treated rabbits
[2] = cited from earlier work
[3] = Distribution after oral administration (HPLC); assay type: in vivo, rat; settings: oral 50 mg/kg; for concentration at 0.5 h / concentration at 1 h / concentration at 6 h: rat; for concentration at 0.5 h: 30 min.; for concentration at 1 h: 60 min.
Experimental: Rats were treated with 50 mg/kg of Coenzyme Q10 by oral route and the concentration of the active principle was determined by using the HPLC method in several organs after 30 min., 60 min. and 6 hours.

[4] = Cutaneous absorption of Coenzyme Q10 in the rat; assay type: in vivo, male Wistar rat; settings: topical, 5 mg/kg/cm^2 of skin
Experimental: In order to evaluate the cutaneous absorption of Coenzyme Q10 after its application on the skin a group of male Wistar rats of the average weight of 280 g was used. The animals were epilated on the back and a composition corresponding to a dose of Coenzyme Q10 of 5 mg/kg/cm^2 of skin was applied on the epilated back.
Samples of skin were then removed both from treated and untreated animals at intervals of 1, 3, 6 and 24 hours from treatment. The skin, together with the removed subcutaneous tissue, was homogenized and kept at -20° C. till the moment of analysis.
Samples of 5 g each of tissue were saponified in the presence of pyrogallole.
The fraction containing Coenzyme Q10 and other neutral fats was extracted with hydrocarbon solvents and purified chromatographically on column.
The spectrophotometric measurement was performed according to the method described by Linn B. O., Page A. C., Wong E. L., Gale, P. H., Shunk C. H., Folkers K. [J. Am. Chem. Soc., 81, 4007 (1959)].

[5] = Cutaneous concentration after topical administration (HPLC); assay type: in vivo, rat; settings: topical 2 mg/cm^2, vegetal oils as solvents and excipients
Experimental: Rats were cutaneously treated with 2 mg/cm^2 of skin of Coenzyme Q10 and the concentration was measured by the HPLC method. The results are listed in Table 3 for two different vehicles.

pregnant Wistar rats = assay: Theratogenesis test, topical; settings: topical on epilated and abraded skin, 50 mg/kg/die, seventh to fifteenth day of pregnancy
Experimental: In order to evaluate if the administration by the topical route of Coenzyme Q10 could interfere on the normal ebryonal or phaetal development, a pharmaceutical composition of the invention corresponding to an amount of Coenzyme Q10 of 50 mg/kg/die was spread on the epilated and abraded skin of ten pregnant Wistar rats.
The administration was carried out from the seventh to the fifteenth day of pregnancy.
The main internal organs were also subjected to observation.

New Zealand rabbits = assay: Acute toxicity by topical cutaneous route in rabbits; assay type: in vivo, New Zealand rabbit; settings: 5 to 20 mg per cm^2 of depilated (intact or abraded) back, immediately and after 8 days
Experimental: Similar experiences were carried out also on a group of 8 New Zealand rabbits of both sexes, having the back depilated. The cutis of 4 of these animals was also abraded.
Two days after the depilation, the compositions of the invention, corresponding to doses of Coenzyme Q10 ranging from 5 to 20 mg per square centimeter of area of the depilated back, were spread on the cutis of the animals so prepared.

male New Zealand rabbits = assay: Chronic toxicity, topical, 60 days, rabbits; settings: 50 mg/kg/die, daily for 60 days
Experimental: (§1) These tests were carried out by administering locally on the skin of two groups of 30 male Wistar rats and of 6 male New Zealand rabbits with the skin epilated, the skin of one group being epilated and abraded, a pharmaceutical composition for a total amount of 50 mg/kg/die of Coenzyme Q10.
(§2) The administration went on daily for 60 consecutive days.
(§3) Before the start of the treatment and at the end all the animals were subjected to a series of controls and examinations regarding the ponderal increase, red-cells and white cells count, haemoglobin concentration in the blood, glycemia, azotemia, transaminases and blood total proteins. The urinary elimination was also tested. At the end of treatment all the animals were killed and accurate anatomopathological and histopathological examinations were performed on each animal with particular regard to the zones of treated skin.

[6] = tested on: dithranol (anthralin) induced inflammatory reaction; assay: Test of dithranol induced cutaneous inflammation; assay type: in vivo, male Guinea pig; settings: topical 2 mg/cm^2 cutis, both in peanut and soybean oil, 48 hours
Experimental: Male Guinea pigs, weighing 330 g, were epilated at the back and, 24 hours after that, 20 mg of dithranol (anthralin) was intradermically injected into symmetric areas of the back.
Coenzyme Q10 dissolved in peanut and soybean oil was spread on the backs of the animals under test, at the dosage of 2 mg/cm^2 cutis, whereas the control group of animals was subjected to no treatment.
The treated area was covered with Nescofilm and bound up with Micropore.
48 Hours after the administration of the inflammatory agent, the size of the induced inflammatory area was evaluated.

[7] = oral route; cited from earlier work
[8] = Distribution after parenteral (intramuscular) administration (HPLC); assay type: in vivo, rat; settings: intramuscular 20 mg/kg; for concentration at 0.5 h / concentration at 1 h / concentration at 6 h: rat, im; for concentration at 0.5 h: 30 min.; for concentration at 1 h: 60 min.
Experimental: Rats were treated with 20 mg/kg of Coenzyme Q10 by intramuscular injection and the concentration of the active compound was determined by HPLC after 30 min., 60 min. and 6 hours.

Wistar rats = assay: Acute toxicity by topical cutaneous route in rats; assay type: in vivo, Wistar rat; settings: 5 mg up to 20 mg per cm^2 of depilated (intact or abraded) skin, immediate and eight days after treatment
Experimental: To assess the toxicity of the product administered by the topical cutaneous route, two groups of forty Wistar rats of both sexes in the same number, carefully depilated on the back, were used.
To a group of these rats, the depilated skin was also abraded. On the cutis so prepared after two days the compositions of the invention containing increasing amounts of Coenzyme Q10 in the ratio of 5 mg up to 20 mg for each square centimeter of depilated skin, were spread for each group of ten rats.

experimental burns = assay: Experimental burn in the rat; assay type: in vivo, male Wistar rat
dental caries = assay: Dental caries in hamster fed by cariogenic diet; assay type: in vivo; settings: 25 mg/kg on the dental gingival region
male Wistar rats = assay: Chronic toxicity, topical, 60 days, rats; settings: 50 mg/kg/die, daily for 60 days
Experimental: as §1, §2, §3

[9] = in excipients compatible with parenteral administration; cited from earlier work
[10] = Cutaneous absorption in volunteers; assay type: in vivo, human (health volunteers); settings: human, skin, topical or ocular, 1 mg/cm^2, corneous layer removed, read-out: mean percent absorption
Experimental: For these tests the method described by Tauber and al. [Arzneimittel Forschung, 26, N7b, 1492 (1976)].
On 4 health volunteers, areas of about 30 cm^2 of skin whose corneous layer had been removed, were spread with a composition corresponding to 1 mg/cm^2 of Coenzyme Q10.
Immediately after the application and after 24 hours from the application on the skin, the composition not absorbed was removed by cotton-wool and the cotton-wool used for the removal was extracted with chloroform/ethanol.
After saponification in presence of pyrogallole the fraction containing Coenzyme Q10 and other neutral fact was extracted with hydrocarbon solvents and purified chromatographically on column.
The spectrophotometric measure was carried out according to the method described by Linn and al. [J. Am. Chem. Soc., 81, 4007 (1959)].

[11] = oral 50-100 mg/dosage (100-200 mg pro die)
[12] = heart, read-out: Mean tissutal concentration
[13] = kidney, read-out: Mean tissutal concentration
[14] = liver, read-out: Mean tissutal concentration
[15] = plasma, read-out: Mean plasmatic concentration

## COC1=C(OC)C(=O)C(CC=C(C)CCC=C(C)CCC=C(C)CCC=C(C)CCC=C(C)CCC=C(C)CCC=C(C)CCC=C(C)CCC=C(C)CCC=C(C)C)=C(C)C1=O [Coenzyme Q10, 2,3-dimethoxy-5-methyl-6-decaprenyl-benzoquinone]
[1]
  carrageenin oedema inhibition (in words): partially inhibited
Holes in rabbits' ears
  tissular regeneration and healing processes: much faster than in the not treated rabbits
[2]; [11]
  clinical results (in words): satisfactory clinical results
  side-effects (in words): increases, sometimes intolerably, the side-effects of the drug
[2]; oral administration of high doses
  change in Coenzyme Q10 in peripheral tissues (in words): no changes in Coenzyme Q10 are detectable
[3]
  cutaneous concentration (in words): no appreciable appearance of cutaneous concentration
  heart concentration change (in words): substantial changes occur at the heart level
  plasmatic concentration change (in words): negligeable
[3]; [12]
  concentration at 0.5 h: 7100 ng/g
  concentration at 1 h: 12300 ng/g
  concentration at 6 h: 14700 ng/g
[3]; [13]
  concentration at 0.5 h: 6500 ng/g
  concentration at 1 h: 10100 ng/g
  concentration at 6 h: 15600 ng/g
[3]; [14]
  concentration at 0.5 h: 4100 ng/g
  concentration at 1 h: 7100 ng/g
  concentration at 6 h: 9800 ng/g
[3]; [15]
  concentration at 0.5 h: 170 ng/mL
  concentration at 1 h: 190 ng/mL
  concentration at 6 h: 2700 ng/mL
[4]
  time of highest concentrations in cutaneous tissue: from the third to the sixth hour after the administration
[5]
  concentration at the cutis level (in words): A good increase
Pregnant Wistar rats
  alteration or malformation of phoetuses: no alteration or malformation was noticed
New Zealand rabbits
  mortality or clear toxicity: neither immediately after the administration nor after 8 days, mortality cases or clear toxicity were noticed
Male New Zealand rabbits
  biological parameters versus untreated controls: did not show, in comparison with the untreated control animals, any significative difference in the different biological parameters considered
  histological examination of the skin: did not show any pathological change
[6]
  decrease of inflammatory areas with respect to non-treated animals: 50%
[7]
  LD50: higher than 4 g/kg
[8]
  cutaneous concentration (in words): no concentration in the cutis is present at any time
[8]; [12]
  concentration at 0.5 h: 10500 ng/g
  concentration at 1 h: 14300 ng/g
  concentration at 6 h: 16200 ng/g
[8]; [13]
  concentration at 0.5 h: 9500 ng/g
  concentration at 1 h: 11500 ng/g
  concentration at 6 h: 10200 ng/g
[8]; [14]
  concentration at 0.5 h: 11700 ng/g
  concentration at 1 h: 12600 ng/g
  concentration at 6 h: 14400 ng/g
[8]; [15]
  concentration at 0.5 h: 270 ng/mL
  concentration at 1 h: 940 ng/mL
  concentration at 6 h: 800 ng/mL
Wistar rats
  mortality, toxic effect or intolerance: did not show the appearance of any mortality cases, toxic effect or intolerance
Experimental burns; preventive topical application, 1-2 mg/cm^2 of skin
  seriousness of the lesions (in words): decreased in fact the seriousness of the lesions
Experimental burns; topical route
  protective effect on experimental burn (in words): protective effect
Experimental burns; treated daily, 1-2 mg/cm^2 of skin, 4 consecutive days preceding burn induction
  reduction of the seriousness of the burn (Blue Evans): more than 50%
Experimental burns; treated only once half an hour before burn induction
  seriousness of the burn versus control rats (Blue Evans): not significantly different
Dental caries
  treated animals in which onset of dental caries is prevented: more than 50%
Male Wistar rats
  biological parameters versus untreated controls: did not show, in comparison with the untreated control animals, any significative difference in the different biological parameters considered
  histological examination of the skin: did not show any pathological change
[9]
  solubility (in words): very low solubility
[10]
  Fa at 24 h: 18.5 ± 6.2%

Reference: patent publication US4654373A, “Pharmaceutical formulations containing coenzyme Q10 suitable for topic administration” (Italfarmaco S.A., priority 1982, dated 1987)
